This note sets out measurements from US10273279B2, “Protease activated receptor-1 (PAR1) derived cytoprotective polypeptides and related methods” (THE SCRIPPS RESEARCH INSTITUTE, priority 2011, dated 2019).

Test [1] deals with ERK1/2 phosphorylation at Thr202/204 in EA.hy.926 human endothelial cells. The experiment in a line: ERK1/2 phosphorylation in EA.hy.926 endothelial cells (in-cell Western). It counts as cell-based. The conditions noted are these: for ERK1/2 phosphorylation (pERK1/2): 0, 5 or 30 min, TFLL 50 μM, NPND 250 μM, scr-NPND 250 μM; for activation of ERK1/2: Example 7. The source says: (§1) Activated Protein C (APC) cleaves a synthetic PAR1 tail peptide at Arg^41 and Arg^46; furthermore, APC cleaves SEAP-PAR1 mutants with the mutations R41A or R41Q but not SEAP-PAR1 with both R41Q/R46Q mutations. […] It was thus hypothesized that a new PAR1 N-terminus beginning at residue Asn-47 promotes PAR1 signaling and APC cytoprotective activities. Since phosphorylation of signaling network components is useful for monitoring activation of signaling pathways, the effects of synthetic PAR1 peptides on Akt and ERK1/2 phosphorylation in EA.hy.926 human endothelial cells were studied. Cells were treated for 0, 5 or 30 min with peptides prior to cell fixation, permeabilization of cells and subsequent immunoblotting analysis (“in-cell Western blotting”). Relative phosphorylation of Akt at Ser^473 (pSer^473-Akt) or of ERK1/2 at Thr202/204 (pERK1/2) in endothelial cells was quantified using the LI-COR Odyssey infrared (IR) fluorescence imaging system which permits “in cell” Western blots. The Odyssey permits simultaneous quantification of different antibodies that yield either red or green signals.
(§2) Methods: EA.hy.926 cells (ATCC: CRL-2922) were grown in black clear bottom 96 well plates (Nunc) in DMEM (Invitrogen #12430) supplemented with glutamax (Invitrogen #35050) and 10% FBS (Hyclone #35-011-CV) in a 37° C. cell incubator with a humidified atmosphere and 5% CO2 in air until confluency. Cells were treated for 0, 5 or 30 min with PAR1 peptides TFLL (50 μM), NPND (250 μM) or scr-NPND (250 μM) or with vehicle in serum free media. Subsequently cells were fixed with methanol free 4% para-formaldehyde (Pierce), washed with phosphate buffered saline (PBS; Invitrogen) containing 1% triton X-100 and blocked with Odyssey blocking buffer (Licor). Cells were incubated with rabbit anti-pT202/Y204 ERK1/2 (1/1000; Cell signaling D13.14.4E) or rabbit anti-pSer^473 (1/100; cell signaling D9E) with Odyssey blocking buffer. After washing with PBS/0.1% Tween (1/800), IRDye 800CW-labelled secondary goat anti-rabbit antibodies (Licor) were added to the cells in Odyssey blocking buffer and 1/10,000 Draq5 (Biostatus) for cell normalization. After final washing with PBS/0.1% Tween IR, the fluorescence of bound antibodies was determined using the Odyssey (Licor). Background fluorescence was determined by omitting the primary antibody and subtracting values for controls from all other observed values.

Test [2] relates to glycogen synthase kinase 3β (GSK3β) phosphorylation at Ser9. The experiment in a line: GSK3β Ser9 phosphorylation in endothelial cells. The conditions noted are these: for Ser9-GSK3β phosphorylation: Example 6. The format is cell-based, human. The protocol: To further confirm activation of Akt by the TR47-66 peptide, Akt-mediated inactivation of glycogen synthase kinase 3β (GSK3β) via phosphorylation at Ser9 was determined. GSK3β is a well-known downstream substrate for Akt.

For test [3], the system named is Akt phosphorylation at Ser473 in EA.hy.926 human endothelial cells. The test is described as follows: Akt Ser473 phosphorylation in EA.hy.926 endothelial cells (in-cell Western). The format is cell-based. The note with it: for pSer473-Akt (Akt phosphorylation): 0, 5 or 30 min, TFLL 50 μM, NPND 250 μM, scr-NPND 250 μM; for Ser473-Akt phosphorylation (activation of Akt): Example 7, under the employed experimental conditions.
From the text: as §1, §2

The subject of test [4] is ERK1/2 phosphorylation in EAhy926 endothelial cells. The experiment in a line: ERK1/2 phosphorylation in EA.hy.926 endothelial cells, Western blot of lysates (LI-COR Odyssey). It counts as cell-based, human. The note with it: 5 min; 10 nM APC or thrombin, 10 μM TFLL peptide, 50 μM TR47-66 or scr-TR47-66. The method, then:
To assess whether PAR1 cleaved at Arg^46 would generate a PAR1 N-terminus that is capable of promoting PAR1 signaling, we studied the effects of synthetic peptides on ERK1/2 phosphorylation in EAhy926 endothelial cells. […] Relative phosphorylation of ERK1/2 was determined using the LI-COR Odyssey infrared imaging system which permits quantitative analysis over a wide dynamic range.
In this figure (left), anti-pT202Y204-ERK1/2 antibodies appear green while total anti-ERK1/2 antibodies appear red, and orange intensity reflects overlaps. […] The signal for phosphorylated ERK1/2 (green channel) was normalized to the signal for total ERK1/2 antigen (red channel) to quantify relative phosphorylation as a ratio, and the results are seen in the bar graph. […] The control scr-TR47-66 peptide (scrambled residues 47-66) caused no increase.
Methods: EA.hy.926 cells (ATCC; CRL-2922) were grown in 6-well plates in DMEM (Invitrogen #12430) supplemented with glutamax (Invitrogen #35050) and 10% FBS (Hyclone #35-011-CV) in a 37° C. cell incubator with a humidified atmosphere and 5% CO2 in air until confluency. […] Subsequently cells were resuspended in lysis buffer with protein and phosphatase inhibitors, cell lysates were applied to SDS-PAGE gel electrophoresis on 10% Bis-Tris gels with MOPS running buffer (Invitrogen) and transferred to PVDF membrane (Millipore) for Western blot analysis. Blots were blocked in Odyssey blocking buffer (Licor) and incubated with a combination of mouse anti-ERK1/2 (1/2000; Cell Signaling #3A7) and rabbit anti-pT202/204 ERK1/2 (1/1000; cell signaling #D13.14.4E) antibodies in Odyssey blocking buffer (Licor). After washing, blots were incubated with RDye680-labeled donkey anti-mouse (1/10,000; Licor) and IRDye800CW-labeled donkey anti-rabbit (1/10,000), washed again with PBS/0.1% Tween and IR fluorescence of bound antibodies was determined using the Odyssey (Licor).

Regarding “NPNDKYEPFWEDEEKNESGL (listed as Homo sapiens) [TR47-66]”, in test [1], the “ERK1/2 phosphorylation (pERK1/2)” value was “essentially no effect” and the “activation of ERK1/2” value is “failed to induce any noticeable activation”. In addition, the Ser9-GSK3β phosphorylation result in test [2] is “induced significant Ser9-GSK3β phosphorylation starting at 30 min”. Moreover, in test [3], the “pSer473-Akt (Akt phosphorylation)” value is given as “increased Akt phosphorylation at Ser^47” and the “Ser473-Akt phosphorylation (activation of Akt)” value (shortened to “Ser473-Akt phosphorylation”) is recorded as “induced activation of Akt”. In addition, the “pSer473-Akt (Akt phosphorylation)” value in test [3] (listed as NPND) is given as “time-dependent sustained increase”. Also, the “Akt phosphorylation at Ser473 in the presence of the PAR1 inhibitor SCH79797” value in test [3] (with SCH79797) was “failed to induce Akt phosphorylation”.
On to “GDENENEKPNWYELKEPDSF (scrambled sequence) [scr-TR47-66, control scrambled TR47-66 peptide containing scrambled residues 47-66, reference compound]”, for which the “ERK1/2 phosphorylation (pERK1/2)” value in test [1] is listed as “essentially no effect”. In addition, the “increase in ERK1/2 phosphorylation (phospho/total ERK1/2 ratio)” value (“increase … (phospho/total ERK1/2 ratio)” below) in test [4] is “no increase”. In addition, the Ser9-GSK3β phosphorylation result in test [2] is given as “no phosphorylation”. Also, the “pSer473-Akt (Akt phosphorylation)” value in test [3] is given as “essentially no effect”.
Consider thrombin, for which, in test [4], the “increase … (phospho/total ERK1/2 ratio)” value worked out at 3 fold. In test [3], the “Ser473-Akt phosphorylation” value was “neither thrombin nor TRAP induced”.
“APC: Activated Protein C, serine protease with anticoagulant and cytoprotective cell signaling activities”: the “activation of ERK1/2” value in test [1] was “transient but modest activation”. Further, in test [4], the “increase … (phospho/total ERK1/2 ratio)” value stood at 1.5 fold. The “phosphorylation of GSK3β at Ser9” value in test [2] (Example 7) is “sustained phosphorylation”. Moreover, in test [3], the “Ser473-Akt phosphorylation” value is given as “robust activation of Akt”.
